Values quoted from earlier work in patent US20190022229A1, “CANNABINOID/TERPENE ENRICHED CAPRYLIC ACID” (priority 2017, published 2019).

Settings: over an eight-hour period; compared with capric acid (C10) alone; from Vandenberghe et al. 2016

SMILES: CCCCCCCC(=O)O [caprylic acid]
- increase in total plasma ketone levels relative to capric acid (C10) alone: approximately three times more
